Assay results reported in US4560695A, “Isoxazolyl and isothiazolyl aromatase inhibitors” (Eli Lilly and Company, priority 1984, dated 1985).

How the values were obtained:
aromatase = molecular target: T1, aromatase (Rattus norvegicus, UniProt P22443); test: Aromatase inhibition in the rat ovarian microsome assay; type: biochemical; settings: substrate (androstenedione) concentration 0.1 μM; rat ovarian microsomes
T1 construct: ovarian microsomes are obtained from rats treated with pregnant mares serum gonadotropin; from tissue; host or cells: ovarian microsomes from rats treated with pregnant mares serum gonadotropin
T1 sequence (P22443 1-508): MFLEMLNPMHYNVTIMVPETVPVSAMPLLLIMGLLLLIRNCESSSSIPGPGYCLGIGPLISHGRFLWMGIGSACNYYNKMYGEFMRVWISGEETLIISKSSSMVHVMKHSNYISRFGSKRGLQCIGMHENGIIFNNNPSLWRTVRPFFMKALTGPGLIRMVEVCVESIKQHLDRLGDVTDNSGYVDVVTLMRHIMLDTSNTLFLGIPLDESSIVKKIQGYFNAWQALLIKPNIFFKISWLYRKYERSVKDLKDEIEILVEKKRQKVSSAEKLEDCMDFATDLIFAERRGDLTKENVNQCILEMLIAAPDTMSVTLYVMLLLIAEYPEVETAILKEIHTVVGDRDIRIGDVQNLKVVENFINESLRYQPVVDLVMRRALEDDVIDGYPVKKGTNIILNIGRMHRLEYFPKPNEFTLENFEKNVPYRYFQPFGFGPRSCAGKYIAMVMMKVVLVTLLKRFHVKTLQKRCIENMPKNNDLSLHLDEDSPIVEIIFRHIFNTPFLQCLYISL
Method: In this test system, ovarian microsomes are obtained from rats treated with pregnant mares serum gonadotropin. Test compounds are added to reaction vials containing 0.1 μM 4-androstene-3,17-dione, 100,000 dpm 1,2[^3 H]-androstenedione, the microsomes and a NADPH generating system. The concentrations of the inhibitors tested ranged between 0.005 and 10 μM.

estrogen synthesis = test: Estrogen synthesis inhibition in rats (uterine weight and ovarian steroid concentrations); type: in vivo, Wistar rats; settings: seven days
Method: By virtue of their ability to inhibit the enzyme aromatase, the compounds of this invention are able to inhibit the synthesis of estrogens in mammals, thereby making the compounds useful in the treatment of estrogen-dependent diseases, such as breast cancer.
Immature female Wistar rats (44-55 grams) were divided into control and test groups of 5-8 animals each. Test compounds were administered for seven days as a component of the diet. Control animals received diet without the test compound. Beginning on the fourth day of the test, all animals treated with the test compound and one half of the control animals were given a subcutaneous injection of 1.0 mg of testosterone propionate in corn oil. The remaining control animals received only an equivalent volume of corn oil. On the seventh day of the test, rats treated with testosterone propionate were injected subcutaneously with 100 μCi of [^3 H]-testosterone in 50 μl of 3:1 (v/v) saline-ethanol.
After two hours, the animals were killed by decapitation. Uteri were isolated, trimmed of extraneous connective tissue, and weighed. […] In the control animals treated with testosterone propionate, estrogens produced by aromatization stimulated the uterus resulting in an increase in weight. […] Ovaries from rats treated with [^3 H]-testosterone were excised, cleaned of extraneous tissue, and homogenized in 2.5 ml of a 1.0 mM potassium phosphate buffer containing 3.0 mM MgCl2.6H2 O, 320 mM sucrose, and 0.25% Triton X-100 (polyethylene glycol p-isooctyl phenyl ether, Rohm and Haas) at pH 6.5. The ovarian steroids were extracted with 1.5 ml of 9:1 (v/v) toluene/ethanol to which had been added 25 to 100 mcg each of unlabelled estradiol, estriol, and estrone, and approximately 1000 dpm of [^14 C]-estradiol. The samples were vortexed, centrifuged at 500×g for 10 minutes, and the organic phase was transferred to a conical vial. Two additional extractions were performed on the residue in the same way. The pooled organic extracts were evaporated for subsequent thin-layer chromatography.
Ovarian proteins were precipitated by the addition of 5.0 ml of ethanol to the remaining aqueous phase. […] Protein was determined according to the method of Bradford, Analytical Biochemistry, 72, 248 (1976). […]
The visible spots were marked and the plates were sprayed with primulin (0.001% in 4:1 v/v acetone/water) according to the method of Wright, J. Chromatography, 59, 220 (1971) which allowed for the identification of additional steroids under 365 nm UV light. […] The organic solvent was evaporated and 10.0 ml of scintillation fluid (Beckman Ready Solv-NA) was added to the vials. Samples were analyzed by liquid scintillation spectrometry. […] Steroid concentrations are expressed as femtomoles per milligram protein.

breast cancer = settings: Cancer Research, Vol. 42, Suppl. 8:3261s (1982); cited from earlier work

OC(c1ccccc1)(c1ccccc1)c1ccns1 [Example 2, α,α-Diphenyl-5-isothiazolemethanol]
EC50 (aromatase): 4.45 µM

OC(c1ccc(Cl)cc1)(c1ccc(Cl)cc1)c1ccns1 [Example 1, α,α-Bis(4-chlorophenyl)-5-isothiazolemethanol]
Mean Uterine Weight (estrogen synthesis; 200 ppm in feed (approximately 20 mg/kg/day), testosterone propionate-treated immature female Wistar rats, 5 animals, ^+ p < 0.05 vs testosterone-treated control (203.4)): 110.8 mg | Mean Steroid Concentration, estriol (estrogen synthesis; ovaries, 200 ppm in feed, [3H]-testosterone, ^+ p < 0.05 vs testosterone-treated control (0.25)): 0.88 femtomoles per milligram of protein | Mean Steroid Concentration, estrone (estrogen synthesis; ovaries, 200 ppm in feed, [3H]-testosterone, testosterone-treated control 0.19): 0.44 femtomoles per milligram of protein | Mean Steroid Concentration, estradiol (estrogen synthesis; ovaries, 200 ppm in feed, [3H]-testosterone, testosterone-treated control 1.70): 1.18 femtomoles per milligram of protein

CCC1(c2ccc(N)cc2)CCC(=O)NC1=O (stereo not shown) [aminoglutethimide]
Effect in treatment of breast cancer (breast cancer): beneficial effect

C[C@]12C=CC(=O)C=C1CC[C@@H]1[C@@H]2CC[C@]2(C)OC(=O)CC[C@@H]12 [testolactone]
Effect in treatment of breast cancer (breast cancer): beneficial effect
